Experimental data as given in patent publication US20210007985A1, “LIPOSOMAL ANTI-INFECTIVE FORMULATIONS TO INHIBIT NON-TUBERCULOUS MYCOBACTERIA (NTM) MICROAGGREGATE FORMATION AND ESTABLISHMENT OF NTM BIOFILM” (ARADIGM CORPORATION, priority 2017, published 2021).
≈ marks a conversion by molar mass, not a printed value.

Columns and labels:
[1] = test system: M. avium biofilm; conditions: incubation of M. avium with antibiotic; McNabe et al. 2012; cited from earlier work
[2] = test system: M. avium 109; experiment: Activity against M. avium 109 in human macrophage (THP-1) model; type: cell-based; conditions: M. avium 109 in THP-1 macrophages; 20 μg/mL for 4 days
[3] = test system: M. avium microaggregates; experiment: Electron micrographs of M. avium microaggregates on epithelial cell monolayer (FIG. 1); type: cell-based; conditions: 300 μg/mL; treatment added at t=0 h; growth over 24 h
Excerpt: FIG. 1 consists of FIGS. 1A, 1B, 1C, 1D and 1E.

[4] = test system: M. avium MAC 104; experiment: Antimicrobial susceptibility (MIC, microdilution) of MAC 104 before and after treatment; type: cell-based; conditions: Mycobacterium avium, MAC104, read-out: MIC of M. avium to ciprofloxacin, before and after treatment
[5] = test system: M. avium 101; experiment: Activity against M. avium 101 in human macrophage (THP-1) model; type: cell-based
[6] = test system: M. avium; conditions: Inderlied et al, 1989; cited from earlier work
[7] = test system: M. avium (MAC Strain 104); experiment: M. avium mouse lung infection model over 6 weeks; type: in vivo, mice; conditions: 1 mg/kg; 3 and 6 weeks

CC1(C)S[C@@H]2[C@H](NC(=O)[C@H](N)c3ccccc3)C(=O)N2[C@H]1C(=O)O [ampicillin]
effect on M. avium biofilm formation [1]: no effect on biofilm

O=C(O)c1cn(C2CC2)c2cc(N3CCNCC3)c(F)cc2c1=O [Ciprofloxacin]
CFU Day 4 [2]: 1.1 ± 0.4 × 10^4 CFU
microaggregate formation in electron micrographs [3]: much less microaggregate formation than control
MIC [4]: 8 µg/mL
statistical effect on CFU in macrophages ([5]; M. avium 101 and 109, 20 μg/ml, Day 4 vs Day 0): did not have a statistically significant effect
CFU Day 0 ([5]; M. avium 101 in THP-1 macrophages, initial infecting load before treatment at 20 μg/mL): 7 ± 0.2 × 10^4 CFU
minimum inhibitory concentration (MIC) [6]: 5 µg/mL (≈ 15.1 µM)
statistical effect on lung CFU [7]: did not have a statistically significant effect

[H]/N=C(/N)N[C@H]1[C@H](O)[C@@H](O)[C@H](O[C@@H]2O[C@@H](C)[C@](O)(C=O)[C@H]2O[C@@H]2O[C@@H](CO)[C@H](O)[C@@H](O)[C@@H]2NC)[C@@H](N/C(N)=N\[H])[C@@H]1O [streptomycin]
effect on M. avium biofilm formation [1]: an increase, not decrease, in the biofilm formation

TMP/SMX
effect on M. avium biofilm formation [1]: no effect on biofilm
